Structures can show the parent of a compound that is named as a salt. Where two headings read alike, the source gives them in different places.
Legend:
human CYP2C19 [1] = biological target: T1, human CYP2C19 (Homo sapiens, UniProt P33261)
CYP3A4 = CYP3A4 (Homo sapiens, UniProt P08684)
human CYP2D6 = human CYP2D6 (Homo sapiens, UniProt P10635); assay: biochemical
human CYP2C9 [2] = biological target: T2, human CYP2C9 (Homo sapiens, UniProt P11712)
human CYP1A2 [3] = biological target: T3, human CYP1A2 (Homo sapiens, UniProt P05177)
T3 sequence (P05177 1-516): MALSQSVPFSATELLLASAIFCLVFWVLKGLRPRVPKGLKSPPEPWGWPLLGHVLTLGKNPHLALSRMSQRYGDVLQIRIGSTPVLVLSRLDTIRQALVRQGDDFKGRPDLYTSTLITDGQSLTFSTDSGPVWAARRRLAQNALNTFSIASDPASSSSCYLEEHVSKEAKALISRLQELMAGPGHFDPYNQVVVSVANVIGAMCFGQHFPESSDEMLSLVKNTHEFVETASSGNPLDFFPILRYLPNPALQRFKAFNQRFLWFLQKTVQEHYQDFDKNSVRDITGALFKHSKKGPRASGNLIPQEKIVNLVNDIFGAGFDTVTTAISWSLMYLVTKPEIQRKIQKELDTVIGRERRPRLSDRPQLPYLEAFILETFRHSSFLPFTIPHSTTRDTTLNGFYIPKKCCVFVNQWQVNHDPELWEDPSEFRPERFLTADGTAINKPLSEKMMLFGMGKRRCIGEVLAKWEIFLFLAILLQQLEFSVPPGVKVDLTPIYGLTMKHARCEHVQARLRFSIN

[4] = biological target: Photinus pyralis (firefly) luciferase (Photinus pyralis, UniProt P08659); assay: biochemical; type: biochemical
human CYP2C19 [5] = biological target: T1, human CYP2C19; assay: biochemical
human CYP1A2 [6] = biological target: T3, human CYP1A2; assay: biochemical
human CYP2C9 [7] = biological target: T2, human CYP2C9; assay: biochemical
[8] = CYP2D6 IC50 (half-maximal inhibitory concentration)
[9] = CYP2C19 IC50 (half-maximal inhibitory concentration)
[10] = CYP1A2 IC50 (half-maximal inhibitory concentration)

Sequence of Photinus pyralis (firefly) luciferase (P08659 whole entry): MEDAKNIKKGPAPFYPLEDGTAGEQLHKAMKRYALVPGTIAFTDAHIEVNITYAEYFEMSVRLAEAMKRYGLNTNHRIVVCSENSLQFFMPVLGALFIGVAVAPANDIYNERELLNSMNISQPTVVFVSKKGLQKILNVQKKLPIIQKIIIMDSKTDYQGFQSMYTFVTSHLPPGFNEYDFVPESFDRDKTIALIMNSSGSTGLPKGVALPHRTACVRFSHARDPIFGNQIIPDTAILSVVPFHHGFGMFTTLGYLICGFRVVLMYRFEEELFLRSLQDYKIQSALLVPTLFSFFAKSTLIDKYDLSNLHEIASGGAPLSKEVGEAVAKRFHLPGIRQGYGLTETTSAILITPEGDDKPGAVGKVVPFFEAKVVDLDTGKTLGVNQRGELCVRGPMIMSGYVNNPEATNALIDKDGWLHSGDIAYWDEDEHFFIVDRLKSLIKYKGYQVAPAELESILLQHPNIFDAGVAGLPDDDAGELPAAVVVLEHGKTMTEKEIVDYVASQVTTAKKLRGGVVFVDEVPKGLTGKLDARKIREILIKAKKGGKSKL
T2 sequence (P11712 whole entry): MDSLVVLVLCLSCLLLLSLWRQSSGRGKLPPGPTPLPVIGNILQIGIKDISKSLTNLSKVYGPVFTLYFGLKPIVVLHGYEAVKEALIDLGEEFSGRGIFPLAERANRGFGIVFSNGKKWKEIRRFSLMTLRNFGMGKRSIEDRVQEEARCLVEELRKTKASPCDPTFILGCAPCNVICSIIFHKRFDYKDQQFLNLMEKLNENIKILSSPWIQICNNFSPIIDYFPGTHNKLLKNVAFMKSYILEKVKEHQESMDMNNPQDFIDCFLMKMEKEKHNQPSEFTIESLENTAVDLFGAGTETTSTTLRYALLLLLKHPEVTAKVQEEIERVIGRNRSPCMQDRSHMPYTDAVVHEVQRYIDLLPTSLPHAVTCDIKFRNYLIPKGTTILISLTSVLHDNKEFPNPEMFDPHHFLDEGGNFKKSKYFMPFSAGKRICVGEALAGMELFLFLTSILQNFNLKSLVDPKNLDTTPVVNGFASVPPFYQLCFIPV
T1 sequence (P33261 whole entry): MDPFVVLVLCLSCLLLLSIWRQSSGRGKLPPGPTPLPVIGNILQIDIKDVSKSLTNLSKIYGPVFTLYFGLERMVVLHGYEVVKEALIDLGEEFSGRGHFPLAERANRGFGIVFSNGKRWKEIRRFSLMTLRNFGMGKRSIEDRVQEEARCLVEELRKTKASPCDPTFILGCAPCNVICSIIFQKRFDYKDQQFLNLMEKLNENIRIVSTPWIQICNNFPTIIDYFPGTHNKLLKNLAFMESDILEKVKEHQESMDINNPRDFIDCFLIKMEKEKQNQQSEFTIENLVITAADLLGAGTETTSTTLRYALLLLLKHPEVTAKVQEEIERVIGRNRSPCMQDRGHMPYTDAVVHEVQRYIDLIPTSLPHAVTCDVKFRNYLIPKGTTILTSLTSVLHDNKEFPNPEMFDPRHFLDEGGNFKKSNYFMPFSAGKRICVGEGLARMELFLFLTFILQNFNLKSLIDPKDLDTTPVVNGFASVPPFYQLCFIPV
Sequence of human CYP2D6 (P10635 whole entry): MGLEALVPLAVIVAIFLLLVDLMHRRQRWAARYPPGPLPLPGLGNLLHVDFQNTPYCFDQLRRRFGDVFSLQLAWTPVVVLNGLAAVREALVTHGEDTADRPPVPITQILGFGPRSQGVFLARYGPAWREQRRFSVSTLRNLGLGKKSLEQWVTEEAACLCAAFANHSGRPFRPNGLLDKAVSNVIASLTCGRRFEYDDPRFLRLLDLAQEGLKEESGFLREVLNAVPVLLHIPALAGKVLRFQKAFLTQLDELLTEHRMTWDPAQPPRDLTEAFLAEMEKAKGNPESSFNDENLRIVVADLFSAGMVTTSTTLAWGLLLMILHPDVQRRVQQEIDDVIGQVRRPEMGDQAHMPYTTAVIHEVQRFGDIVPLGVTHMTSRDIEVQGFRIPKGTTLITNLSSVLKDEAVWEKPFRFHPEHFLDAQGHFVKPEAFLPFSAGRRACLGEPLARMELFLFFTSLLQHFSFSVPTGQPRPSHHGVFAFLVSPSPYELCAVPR
Sequence of CYP3A4 (P08684 whole entry): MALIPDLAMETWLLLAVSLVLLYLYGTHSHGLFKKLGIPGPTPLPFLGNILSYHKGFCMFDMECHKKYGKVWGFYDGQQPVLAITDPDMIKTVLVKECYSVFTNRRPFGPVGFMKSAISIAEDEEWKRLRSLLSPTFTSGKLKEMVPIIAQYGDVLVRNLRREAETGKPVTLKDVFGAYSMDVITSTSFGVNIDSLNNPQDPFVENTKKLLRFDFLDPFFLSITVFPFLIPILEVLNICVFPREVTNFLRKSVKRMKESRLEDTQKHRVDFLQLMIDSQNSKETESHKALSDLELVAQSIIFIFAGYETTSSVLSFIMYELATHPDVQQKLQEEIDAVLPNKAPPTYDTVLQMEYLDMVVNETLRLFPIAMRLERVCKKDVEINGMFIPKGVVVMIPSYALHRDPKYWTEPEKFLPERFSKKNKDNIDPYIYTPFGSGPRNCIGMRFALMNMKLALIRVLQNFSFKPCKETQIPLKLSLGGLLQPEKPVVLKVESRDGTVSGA

| Structure (SMILES) | CYP3A4 IC50 (half-maximal inhibitory concentration) (CYP3A4) | IC50 (human CYP2D6; [8]) [µM] | Luciferase IC50 (half-maximal inhibitory concentration) [4] | IC50 (human CYP2D6; CYP2D6 IC50) [µM] | CYP2C9 IC50 (human CYP2C9 [2]) | Luciferase IC50 [4] | CYP2C19 IC50 (human CYP2C19 [1]) | CYP3A4 IC50 (CYP3A4) | further results |
| --- | --- | --- | --- | --- | --- | --- | --- | --- | --- |
| CN1CCCCC1CCN1c2ccccc2Sc2ccc([S+](C)[O-])cc21 (stereo not shown) [Mesoridazine] | Inactive | 0.09 | Inactive | – | – | – | – | – | CYP2C19 IC50 (half-maximal inhibitory concentration) (human CYP2C19 [1]): Inactive; CYP2C9 IC50 (half-maximal inhibitory concentration) (human CYP2C9 [2]): Inactive; CYP1A2 IC50 (half-maximal inhibitory concentration) (human CYP1A2 [3]): Inactive |
| CN1CCCC(CC2c3ccccc3Sc3ccccc32)C1 (stereo not shown) [Metixene hydrochloride] | Inactive | 0.44 | Inactive | – | – | – | – | – | CYP2C9 IC50 (half-maximal inhibitory concentration) (human CYP2C9 [2]): Inactive; CYP1A2 IC50 (half-maximal inhibitory concentration) (human CYP1A2 [3]): Inactive; IC50 (human CYP2C19 [5]; [9]): 7.76 µM |
| CCN(CC)CCOC(=O)C(Cc1cccc2ccccc12)CC1CCCO1 (stereo not shown) [Nafronyl oxalate] | – | – | – | 2.98 | Inactive | Inactive | – | – | IC50 (human CYP2C19 [5]; CYP2C19 IC50): 7.76 µM; IC50 (human CYP1A2 [6]; CYP1A2 IC50): 18.2 µM |
| CO[C@]12C[C@@H](COC(=O)c3cncc(Br)c3)CN(C)[C@@H]1Cc1cn(C)c3cccc2c13 [Nicergoline] | – | – | – | 0.07 | Inactive | Inactive | – | – | IC50 (human CYP2C19 [5]; CYP2C19 IC50): 11.8 µM; IC50 (human CYP1A2 [6]; CYP1A2 IC50): 22 µM |
| CC(CN1c2ccccc2Sc2ccccc21)N(C)C (stereo not shown) [Promethazine hydrochloride] | Inactive | 0.89 | Inactive | – | – | – | – | – | IC50 (human CYP2C19 [5]; [9]): 14.5 µM; IC50 (human CYP1A2 [6]; [10]): 2.23 µM |
| CCOC(=O)COc1ccc2c(c1)C[C@@H](NC[C@H](O)c1cccc(Cl)c1)CC2 [SR58611] | Inactive | – | Inactive | – | – | – | – | – | IC50 (human CYP2D6): 0.66 ± 0.18 µM; IC50 (human CYP2C9 [7]): 31 ± 4.26 µM; CYP1A2 IC50 (half-maximal inhibitory concentration) (human CYP1A2 [3]): Inactive; IC50 (human CYP2C19 [5]): 35.2 ± 8.79 µM |
| Cc1nc2n(c(=O)c1CCN1CCC(C(=O)c3ccc(F)cc3)CC1)CCS2 [Setoperone] | – | – | – | – | – | Inactive | Inactive | Inactive | IC50 (human CYP2D6): 0.48 ± 0.08 µM; IC50 (human CYP2C9 [7]): 27.2 ± 16.6 µM; IC50 (human CYP1A2 [6]): 32.3 ± 4.12 µM |
| O=C(CCCN1CCC2(CC1)C(=O)NCN2c1ccccc1)c1ccc(F)cc1 [Spiperone] | – | – | – | – | Inactive | Inactive | Inactive | Inactive | IC50 (human CYP2D6; CYP2D6 IC50, mean ± standard deviation from three experiments): 0.79 ± 0.18 µM; CYP1A2 IC50 (human CYP1A2 [3]): Inactive |
| CCCC[N+](CCCC)(CCCC)CCCC [Tetrabutylammonium bromide] | – | – | – | 0.01 | Inactive | Inactive | Inactive | Inactive | CYP1A2 IC50 (human CYP1A2 [3]): Inactive |
| COC1CC(=C(c2cccs2)c2cccs2)C[N+](C)(C)C1 (stereo not shown) [Timepidium bromide] | – | – | – | 0.29 | Inactive | Inactive | Inactive | Inactive | CYP1A2 IC50 (human CYP1A2 [3]): Inactive |
| Oc1cc(Cl)ccc1Oc1ccc(Cl)cc1Cl [Triclosan] | – | – | – | 32.8 | – | Inactive | – | Inactive | IC50 (human CYP2C19 [5]; CYP2C19 IC50): 0.71 µM; IC50 (human CYP1A2 [6]; CYP1A2 IC50): 20.8 µM |
| Cl[C@H]1[C@H](Cl)[C@@H](Cl)[C@H](Cl)[C@@H](Cl)[C@H]1Cl [delta-Hexachlorocyclohexane] | – | 48.8 | Inactive | – | – | – | – | – | AC50 (human CYP2D6; CYP2D6 AC50 (half-maximal activity concentration)): 48.8 µM; AC50 (human CYP2C9 [7]; CYP2C9 AC50 (half-maximal activity concentration)): 25.6 µM; IC50 (human CYP2C9 [7]; CYP2C9 IC50 (half-maximal inhibitory concentration)): 25.6 µM; AC50 (human CYP2C19 [5]; CYP2C19 AC50 (half-maximal activity concentration)): 2.27 µM; IC50 (human CYP2C19 [5]; [9]): 2.27 µM; AC50 (human CYP1A2 [6]; CYP1A2 AC50 (half-maximal activity concentration)): 35.7 µM; IC50 (human CYP1A2 [6]; [10]): 35.7 µM |
| CN(C/C=C/C#CC(C)(C)C)Cc1cccc2ccccc12 [terbinafine, reference compound] | – | – | – | – | – | Inactive | – | – | IC50 (human CYP2D6): 0.4 µM; IC50 (human CYP2C9 [7]): 15.5 µM; IC50 (human CYP2C19 [5]): 31.9 µM; IC50 (human CYP1A2 [6]): 16.8 µM |

— article PMC12155096 (International Journal of Molecular Sciences, 2025)
